According to US10718772B2, “Method of detection of analyte active forms and determination of the ability of substances to bind into analyte active sites” (USTAV ORGANICKE CHEMIE A BIOCHEMIE AKADEMIE VED CR, V.V.I., priority 2014, dated 2020):
Values belong to the compound of their own block, whether it stands above or below them. {C7NH2-Cpd13} = 6-amino-2-(hydroxymethyl)hexyl phosphate carrying Compound 13; {C6NH2-Cpd13} = 6-aminohexyl phosphate carrying Compound 13; {AmHex} = 6-amino-2-(hydroxymethyl)hexyl phosphate

What was measured:
Avi-PSMA [1] = target: T1, Avi-PSMA (Homo sapiens, UniProt Q04609); experiment: Enzyme kinetics of Avi-PSMA (HPLC, cleavage of pteroyl-bis-L-glutamate); assay type: biochemical
T1 construct: Biotinylated extracellular portion of PSMA (hereinafter called Avi-PSMA) used in the enzyme assay; made in house
T1 sequence (Q04609 44-750 limits assumed): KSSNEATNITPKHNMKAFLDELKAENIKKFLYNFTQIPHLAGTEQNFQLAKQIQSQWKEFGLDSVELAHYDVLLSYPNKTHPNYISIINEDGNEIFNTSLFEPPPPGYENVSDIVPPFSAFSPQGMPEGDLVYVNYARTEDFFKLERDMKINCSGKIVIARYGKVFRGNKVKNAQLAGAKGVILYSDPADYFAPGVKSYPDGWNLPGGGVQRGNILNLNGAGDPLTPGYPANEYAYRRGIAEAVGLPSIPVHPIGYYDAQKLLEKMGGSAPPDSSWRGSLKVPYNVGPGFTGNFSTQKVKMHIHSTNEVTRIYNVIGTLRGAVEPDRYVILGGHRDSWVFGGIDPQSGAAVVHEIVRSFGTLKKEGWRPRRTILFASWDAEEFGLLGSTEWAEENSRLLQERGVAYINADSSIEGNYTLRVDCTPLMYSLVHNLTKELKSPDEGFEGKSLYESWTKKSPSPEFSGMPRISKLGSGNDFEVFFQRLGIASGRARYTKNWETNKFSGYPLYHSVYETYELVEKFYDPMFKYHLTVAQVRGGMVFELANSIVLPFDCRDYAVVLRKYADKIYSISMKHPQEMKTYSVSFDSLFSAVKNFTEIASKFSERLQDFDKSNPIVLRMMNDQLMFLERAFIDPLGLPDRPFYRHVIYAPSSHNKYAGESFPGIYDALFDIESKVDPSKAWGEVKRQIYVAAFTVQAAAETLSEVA

HIV-1 protease [2] = target: T2, HIV-1 protease (Human immunodeficiency virus type 1 group M subtype B, UniProt P04585); experiment: HIV-1 protease enzyme kinetics with chromogenic peptide substrate; assay type: biochemical
T2 construct: made in house

CA-IX = CA-IX (Homo sapiens, UniProt Q16790, N346D); experiment: Reference enzyme kinetics of CA-IX (construct without PG domain)
[3] = target: T3, CA-IX contained in a cell lysate of line HT-29 (Homo sapiens, UniProt Q16790); experiment: Bivalent ssCAbis probe assay, CA-IX from HT-29 cell lysate on M75 antibody, qPCR; assay type: binding
T3 construct: unpurified endogenous CA-IX contained in a cell lysate or in microliter volumes of serum; endogenous in cells; host or cells: HT-29

HIV-1 protease [4] = target: T2, HIV-1 protease; experiment: ssHIV1 probe assay, HIV-1 protease directly adsorbed on solid carrier, qPCR; assay type: binding; conditions: pH 6.0
HIV-1 protease [5] = target: T2, HIV-1 protease; experiment: ssHIV1 probe assay, HIV-1 protease bound to immobilized polyclonal antibody, qPCR; assay type: binding
Avi-PSMA [6] = target: T1, Avi-PSMA; experiment: PSMA catalytic activity for substrate hydrolysis by dsA3PSMA probe displacement, qPCR; assay type: biochemical; conditions: for substrate cleaved during incubation: 40 minutes
Protocol: Following the procedure described in section 1i, 20 pg of Avi-PSMA was immobilized to the bottom of the wells via immobilized neutravidin and subsequently incubated with the dsA3PSMA detection probe at a concentration of 35 pmol·l^−1 and simultaneously with various concentrations of the folyl-γ-L-glutamate substrate in the range of 10 nmol·l^−1 to 100 μmol·l^−1 for 40 minutes, and after washing, the amount of bound probe was determined with qPCR. […] At a concentration of 336 nmol·l^−1, 43% was cleaved, corresponding to kcat of 2.3 s^−1 and at a concentration of 1049 nmol·l^−1, 16% was cleaved, corresponding to kcat of 2.6 s^−1. Obtained kcat values are in conformity with the kcat value of 5 s^−1 obtained from enzyme kinetics as described in Section 1c.

CA-IX from blood serum = target: T4, CA-IX from blood serum (Homo sapiens, UniProt Q16790); experiment: Bivalent ssCAbis probe assay, CA-IX from blood serum on M75 antibody, qPCR; assay type: binding; conditions: CA-IX from 1 μl of blood serum
T4 construct: unpurified endogenous CA-IX contained in a cell lysate or in microliter volumes of serum; from tissue; host or cells: human blood serum

[7] = first independent experiment, read-out: Ki (1)
[8] = second independent experiment, read-out: Ki (2)
[9] = initial concentration 107 nmol·l^−1
[10] = initial concentration 336 nmol·l^−1
[11] = initial concentration 1049 nmol·l^−1

Ki (Avi-PSMA [1]; Avi-PSMA, IC50 converted by Cheng-Prusoff, pH 7.4, 37° C.): 3.3 nM
Compound: O=C(O)CCC(NC(=O)NC(CCCCNC(=O)CCOCCC(=O)NCCO)C(=O)O)C(=O)O (centres unmarked) [Compound 4, 1-hydroxy-4,10,18-trioxo-7-oxa-3,11,17,19-tetraazadocosane-16,20,22-tricarboxylic acid]

Compound: CC(C)[C@H](NC(=O)CCOCCOCCOCCOCCOCCC(=O)NCCO)C(=O)N[C@@H](Cc1ccccc1)C[C@H](O)[C@H](Cc1ccccc1)NC(=O)OCc1cncs1 [Compound 8, thiazol-5-ylmethyl ((24S,27S,29S,30S)-27-benzyl-1,29-dihydroxy-24-isopropyl-4,22,25-trioxo-31-phenyl-7,10,13,16,19-pentaoxa-3,23,26-triazahentriacontan-30-yl)carbamate]
Ki (HIV-1 protease [2]): 2.3 nM

Ki (CA-IX): ~400 nM
Compound: NS(=O)(=O)c1ccc(NC(=O)Nc2ccc(OCCCCNC(=O)CCOCCOCCOCCOCCOCCC(=O)ON3C(=O)CCC3=O)cc2)cc1 [Compound 13, 2,5-dioxopyrrolidin-1-yl 19-oxo-24-(4-(3-(4-sulfamoylphenyl)ureido)phenoxy)-4,7,10,13,16-pentaoxa-20-azatetracosan-1-oate]

Ki ([3]; ssCAbis probe, determined in the same way as Table 15, read-out: inhibitory constant): 300 nM
Compound: NCCOCCOCCOCCOCCOCCC(=O)NCCCCOc1ccc(NC(=O)Nc2ccc(S(N)(=O)=O)cc2)cc1 [Compound 14, 18-oxo-23-(4-(3-(4-sulfamoylphenyl)ureido)phenoxy)-3,6,9,12,15-pentaoxa-19-azatri-cosan-1-aminium 2,2,2-trifluoroacetate]

Compound: NCCCC[C@H](NC(=O)N[C@@H](CCC(=O)O)C(=O)O)C(=O)O [PSMA parent compound, S,S-2-[3-[5-amino-1-carboxypentyl]-ureido]-pentanedioic acid]
Ki (Avi-PSMA [1]; Avi-PSMA enzyme assay): 0.2 nM

Compound: COC(=O)N[C@H](C(=O)N[C@@H](Cc1ccccc1)[C@@H](O)CN(Cc1ccc(-c2ccccn2)cc1)NC(=O)[C@@H](NC(=O)OC)C(C)(C)C)C(C)(C)C [atazanavir]
Ki (HIV-1 protease [2]): 0.024 nM
Ki (HIV-1 protease [4]; [7]): 0.11 nM
Ki (HIV-1 protease [4]; [8]): 0.18 nM
Ki (HIV-1 protease [5]): 1.4 nM

Compound: Cc1nc(COc2ccc(C[C@H](NC(=O)O[C@H]3CO[C@H]4OCC[C@H]43)[C@H](O)CN(CC(C)C)S(=O)(=O)c3ccc4c(c3)OCO4)cc2)cs1 [brecanavir]
Ki (HIV-1 protease [2]): 0.001 nM
Ki (HIV-1 protease [4]; [7]): 0.04 nM
Ki (HIV-1 protease [4]; [8]): 0.05 nM
Ki (HIV-1 protease [5]): 0.41 nM

Compound: Nc1nc2ncc(CNc3ccc(C(=O)N[C@@H](CCC(=O)N[C@@H](CCC(=O)O)C(=O)O)C(=O)O)cc3)nc2c(=O)[nH]1 [folyl-γ-L-glutamate]
kcat from enzyme kinetics (Avi-PSMA [1]; as described in Section 1c): 5 s⁻¹
kcat (Avi-PSMA [6]; [9]): 1.2 s⁻¹
substrate cleaved during incubation (Avi-PSMA [6]; [9]): 80%
kcat (Avi-PSMA [6]; [10]): 2.3 s⁻¹
substrate cleaved during incubation (Avi-PSMA [6]; [10]): 43%
kcat (Avi-PSMA [6]; [11]): 2.6 s⁻¹
substrate cleaved during incubation (Avi-PSMA [6]; [11]): 16%

Compound: Cc1cccc(C)c1OCC(=O)N[C@@H](Cc1ccccc1)[C@@H](O)C[C@H](Cc1ccccc1)NC(=O)[C@H](C(C)C)N1CCCNC1=O [lopinavir]
Ki (HIV-1 protease [2]): 0.018 nM
Ki (HIV-1 protease [4]; [7]): 0.18 nM
Ki (HIV-1 protease [4]; [8]): 0.41 nM
Ki (HIV-1 protease [5]): 1.3 nM

Compound: CCC[C@@]1(CCc2ccccc2)CC(O)=C([C@H](CC)c2cccc(NS(=O)(=O)c3ccc(C(F)(F)F)cn3)c2)C(=O)O1 [tipranavir]
Ki (HIV-1 protease [2]): 0.14 nM
Ki (HIV-1 protease [4]; [7]): 1.3 nM
Ki (HIV-1 protease [4]; [8]): 2.9 nM
Ki (HIV-1 protease [5]): 14 nM

Compound: iqPCR_amino: single-stranded DNA (SEQ ID NO: 1) with 3′-terminal 6-amino-2-(hydroxymethyl)hexyl phosphate modification, no ligand portion (DNA CCTGCCAGTTGAGCATTTTTATCTGCCACCTTCTCCACCAGACAAAAGCTGGAAA; DNA, 3' {AmHex}, backbone not given here)
inhibition at the highest concentration used (Avi-PSMA [1]; 0.5 μmol·l^−1): no inhibition observed
binding to immobilized HIV-1 protease (HIV-1 protease [5]; 100 ng of HIV-1 protease): no binding was observed

Compound: ssCAbis: bivalent probe: two molecules of Compound 13 on oligonucleotide SEQ ID NO: 7 (DNA AAACCTGCCAGTTGAGCATTTTTATCTGCCACCTTCTCCACCAGACAAAAGCTGGAAA; 5' {C6NH2-Cpd13}, 3' {C7NH2-Cpd13}, sugars by position and backbone not given here)
Kd ([3]; HT-29 lysate, HEPESTC′ buffer): 2.1 nM
Kd (CA-IX from blood serum): 2.2 nM
